Entries after “also recorded” stand apart in the source; their conditions may differ.
Tests used:
[1] = target: T1, CYP2C19 (Homo sapiens, UniProt P33261); test: CYP enzyme inhibition assay, CYP2C19; type: in vitro ADME; settings: human liver microsomes
T1 construct: An incubation system of human liver microsomes (20 μL, 1.5 mg/mL); from tissue; host or cells: human liver microsomes
Description: An incubation system of human liver microsomes (20 μL, 1.5 mg/mL), 20 μL probe substrates, and 50 μL test compound in Tris (0.1 mol/L) was pre-incubated at 37 °C for 10 min, and then initiated by adding NADPH (10 μL, 10 mmol/L). […] Finally, the sample was centrifugated to obtain the supernatant for LC‒MS/MS analysis.

[2] = Plasma protein binding assay (equilibrium dialysis); type: in vitro ADME; settings: rat plasma, dialysis 37 °C, read-out: plasma protein binding rate (%PPB) (converted)
Description: The DMSO solution of A12 was diluted to 100 μmol/L with MeOH:H2O (1:1) and then added to the pre-loaded plasma to obtain plasma samples with a test concentration of 1 μmol/L. Subsequently, 100 μL of control dialysis buffer (phosphate buffer + 0.002% Tween-80) and 100 μL of A12 plasma sample were transferred to the receiver and the donor side of dialysis chambers, respectively, two copies of each sample. The dialysis system was incubated in a shaker (37 °C, 6 h). Upon completion, 20 μL of samples were removed from each of the buffer and plasma chambers. After adding aliquots control plasma, PBS (0.002% Tween-80) respectively, 250 μL methanol solution with internal standard was added into each sample. The solution was mixed and centrifuged (3800 rpm, 10 min) to obtain the supernatant for LC‒MS/MS analysis.

[3] = tested on: ICR mice; test: Acute toxicity assay in ICR mice; type: in vivo
Description: A12 was suspended in PEG400/normal saline (80/20, v/v) to achieve a concentration of 100 mg/ml. Sixteen ICR mice (eight male/eight female, 18–22 g) were assigned into 4 groups randomly, and each group contained 4 male mice or 4 female mice (n = 4). […] Over the next two weeks, the mortality, body weight, and abnormal behaviors of these mice were monitored daily. All mice were dissected after blood collection on Day 14, and several vital organs were removed and then assessed for pathological damage by HE staining. The collected blood was submitted for blood biochemistry testing.

[4] = tested on: six CYP isoenzymes (not named; range over all six); test: CYP inhibition, six isoenzymes (summary range); type: in vitro ADME; settings: human, human liver microsomes
Description: An incubation system of human liver microsomes (20 μL, 1.5 mg/mL), 20 μL probe substrates, and 50 μL test compound in Tris (0.1 mol/L) was pre-incubated at 37 °C for 10 min, and then initiated by adding NADPH (10 μL, 10 mmol/L). The system was incubated for another 15 min and subsequently terminated by 100 μL MeCN containing internal standard (propranolol, nadolol). Finally, the sample was centrifugated to obtain the supernatant for LC‒MS/MS analysis.

T1 sequence (P33261 whole entry): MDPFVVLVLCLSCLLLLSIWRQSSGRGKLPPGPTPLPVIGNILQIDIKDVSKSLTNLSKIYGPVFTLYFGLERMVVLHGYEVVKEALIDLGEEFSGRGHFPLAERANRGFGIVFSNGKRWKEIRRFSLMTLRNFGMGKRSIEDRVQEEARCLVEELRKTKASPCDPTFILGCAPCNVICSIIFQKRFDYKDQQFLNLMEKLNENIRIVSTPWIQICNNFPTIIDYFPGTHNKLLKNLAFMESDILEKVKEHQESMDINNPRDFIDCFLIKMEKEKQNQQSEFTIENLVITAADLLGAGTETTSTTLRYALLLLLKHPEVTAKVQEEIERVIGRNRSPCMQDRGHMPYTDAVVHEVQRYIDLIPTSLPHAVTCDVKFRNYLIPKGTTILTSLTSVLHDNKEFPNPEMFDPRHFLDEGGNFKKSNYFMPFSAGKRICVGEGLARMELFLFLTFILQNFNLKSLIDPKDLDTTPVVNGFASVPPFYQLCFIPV

For Cc1cc(-c2ccc(C#N)cc2)cc(C)c1Nc1nc(Nc2ccc(C#N)cc2)ncc1F [A12, 4′-((2-((4-Cyanophenyl)amino)-5-fluoropyrimidin-4-yl)amino)-3′,5′-dimethyl-[1,1′-biphenyl]-4-carbonitrile], the IC50 [1] was 14.5 µM, the fraction unbound at 6 h, 1 μmol/L [2] was 0.005 and the “HE staining of vital organs (brain, heart, liver, spleen, lung, kidney)” value ([3]; 2 g/kg i.g., Day 14) was “does not show any discernible pathological alteration in vital organs; also recorded: no notable pathological alterations were detected in the vital organs”. The “blood biochemical parameters (ALT, AST, CREA, UREA, CKMB)” value ([3]; 2 g/kg i.g., fourteen days after administration, vs control) was “no significant differences in blood biochemical parameters”, the mortality ([3]; male and female, single dose 2 g/kg i.g., 14 days) was “No instances of mortality were recorded” and the “acute toxicity, overall” value ([3]; single dose 2 g/kg) was “excellent tolerance at doses reaching 2 g/kg, without any manifestation of immediate toxicity”. The abnormal behavior ([3]; single dose 2 g/kg i.g., 14 days) was “no noteworthy deviations in behavior were detected”, the body weight growth ([3]; single dose 2 g/kg i.g., vs control group) was “growth patterns similar to that shown by the control group” and the IC50 at 15 min [4] was 6.99 to 25 µM.
